Holding throughout (assay type): cell-based
Assay [1] has as its system human melanoma cells A375 (with a mutated B-RAF). In words: In vitro cell proliferation assay, A375. Particulars: A-375, 72 hours, cellular ATP monitoring. As for the experimental part:
(§1) Exponentially growing human melanoma cells A375 (with a mutated B-RAF) and human melanoma cells Mewo (with wild-type B-Raf) were seeded and incubated at 37° C. in a humidified 5% CO2 atmosphere. After 24 hours, scalar doses of the compound were added to the medium and cells oncubated for 72 hours. At the end of treatment, cells were washed and counted. Cell number was determined by a cellular adenosine triphosphate monitoring system. Cell proliferation was compared to control cells and the concentration inhibiting cell growth by 50% was calculated.

The subject of assay [2] is p-MAPK (T202/Y204) in A375 human melanoma cells, having a mutated B-RAF. In words: p-MAPK (T202/Y204) ArrayScan assay. As for the experimental part:
A375 human melanoma cells, having a mutated B-RAF, are seeded in 384-well poly-lysine coated plates (Matrix) at a density of 1000 cells/well with appropriate medium supplemented with 10% FCS and incubated for 16-24 hours. Cells are treated for 1.5 or 2 hours with increasing doses of compounds (starting dose 10 μM, dilution factor 2.5). At the end of the treatment cells are fixed with p-formaldehyde 3.7% for 15-30 min, then washed twice with D-PBS ([…]) and permeabilized with D-PBS containing 0.1% Triton X-100 and 1% BSA (Sigma-Aldrich) for 15 minutes at room temperature (staining solution). […] After removal of antibody solution, the anti-mouse Cy™2-conjugated (Green) secondary antibody (Amersham) diluted 1:500 in staining solution containing […] DAPI is added. The plate is incubated for 1 hour at 37° C., washed twice and red with Cellomics' ArrayScan VTI (4 fields/well, CytoNucTrans algorithm).
The parameter “MEAN_RingAvgIntenCh2”, which measures the mean cytoplasmatic fluorescence intensity associated to p-MAPK staining, is reported as the final result.

Assay [3] has as its system human melanoma cells Mewo (with wild-type B-Raf). The experiment in a line: In vitro cell proliferation assay, Mewo. Particulars: 72 hours, cellular ATP monitoring. As for the experimental part: as §1
[4] abbreviates: A-375, A375 cells treated 1.5 or 2 hours, p-MAPK staining, MEAN_RingAvgIntenCh2, read-out: Array Scan A375 IC50.
The mark [5] stands for this setting: A-375, read-out: Array Scan A375 IC50.

Results on 23 compounds are retold here after patent US8524707B2, “Bicyclic pyrazoles as protein kinase inhibitors” (Nerviano Medical Sciences S.r.l., priority 2008, dated 2013).

Each structure is given as a SMILES string. Read-outs that look alike come from different tables or passages of the source.

Turning to `O=C(Nc1ccc(Cl)cc1)Nc1cccc(-c2nn3c(c2-c2ccncc2)SCCC3)c1` [compound 1, 1-(4-chloro-phenyl)-3-[3-(3-pyridin-4-yl-6,7-dihydro-5H-pyrazolo[5,1-b][1,3]thiazin-2-yl)-phenyl]-urea], the half-maximal inhibitory concentration (IC50) in assay [1] came to 2.48 µM; in assay [2] (setting [4]), 7.37 µM; in assay [3] it was 3.59 µM.

With `Cc1ccc(NC(=O)Nc2cccc(-c3nn4c(c3-c3ccncc3)SCCC4)c2)cc1` [compound 2, 1-[3-(3-pyridin-4-yl-6,7-dihydro-5H-pyrazolo[5,1-b][1,3]thiazin-2-yl)-phenyl]-3-p-tolyl-urea], the IC50 in assay [1] is 3.69 µM; in assay [2] (setting [4]), 5.57 µM; in assay [3], 7.25 µM.

With `O=C(Nc1ccc(C(F)(F)F)cc1)Nc1cccc(-c2nn3c(c2-c2ccncc2)SCCC3)c1` [compound 3, 1-[3-(3-pyridin-4-yl-6,7-dihydro-5H-pyrazolo[5,1-b][1,3]thiazin-2-yl)-phenyl]-3-(4-trifluoromethyl-phenyl)-urea], the IC50 worked out at 0.91 µM in assay [1], 0.77 µM in assay [2] (setting [4]) and 2.54 µM in assay [3].

In the case of `O=S(=O)(Nc1cccc(-c2nn3c(c2-c2ccncc2)SCCC3)c1)c1cccc(F)c1` [compound 4, 3-fluoro-N-[3-(3-pyridin-4-yl-6,7-dihydro-5H-pyrazolo[5,1-b][1,3]thiazin-2-yl)-phenyl]-benzenesulfonamide], the values for the half-inhibitory concentration (IC50) in assay [1], in assay [2] (setting [4]) and in assay [3] were 7.51 µM, 1.62 µM and > 10 µM, respectively.

For `O=C(Nc1ccc(C(F)(F)F)cc1)Nc1cccc(-c2nn3c(c2-c2ccncc2)SCC3)c1` [compound 5, 1-[3-(7-pyridin-4-yl-2,3-dihydro-pyrazolo[5,1-b]thiazol-6-yl)-phenyl]-3-(4-trifluoromethyl-phenyl)urea], the IC50 in assay [1] was 0.43 µM; in assay [2] (setting [5]), 0.6 µM; in assay [3], 2.63 µM.

`O=C(Nc1ccc(Cl)cc1)Nc1cccc(-c2nn3c(c2-c2ccncc2)SCC3)c1` [compound 6, 1-(4-chloro-phenyl)-3-[3-(7-pyridin-4-yl-2,3-dihydro-pyrazolo[5,1-b]thiazol-6-yl)-phenyl]-urea]: the 50% inhibitory concentration (IC50) in assay [1] is 2.33 µM; in assay [2] (setting [4]), 1.38 µM; in assay [3], 5.95 µM.

With `Oc1cccc(-c2nn3c(c2-c2ccncc2)SCC3)c1` [compound 7, 3-(7-pyridin-4-yl-2,3-dihydro-pyrazolo[5,1-b]thiazol-6-yl)-phenol], the IC50 in assay [1] is 0.95 µM; in assay [2] (setting [4]), 0.75 µM; in assay [3], > 10 µM.

As for `Oc1cccc(-c2nn3c(c2-c2ccncc2)SCCC3)c1` [compound 8, 3-(3-pyridin-4-yl-6,7-dihydro-5H-pyrazolo[5,1-b][1,3]thiazin-2-yl)-phenol], the IC50 in assay [1] is 1.51 µM; in assay [2] (setting [5]) it was 2.04 µM; in assay [3], > 10 µM.

For the compound `O=S(=O)(Nc1cccc(-c2nn3c(c2-c2ccncc2)SCCC3)c1)c1cc(F)ccc1F` [compound 9, 2,5-difluoro-N-[3-(3-pyridin-4-yl-6,7-dihydro-5H-pyrazolo[5,1-b][1,3]thiazin-2-yl)-phenyl]-benzenesulfonamide], the IC50 in assay [1] was 1.28 µM; in assay [2] (setting [4]), 0.46 µM; in assay [3], 4.29 µM.

`O=S1(=O)CCn2nc(-c3cccc(O)c3)c(-c3ccncc3)c21` [compound 10, 3-(1,1-dioxo-7-pyridin-4-yl-2,3-dihydro-pyrazolo[5,1-b]thiazol-6-yl)-phenol]: the figures for the IC50 in assay [1], in assay [2] (setting [4]) and in assay [3] were 1.98 µM, 0.62 µM and > 10 µM, respectively.

Take `O=S(=O)(Nc1cccc(-c2nn3c(c2-c2ccncc2)SCC3)c1)c1cc(F)ccc1F` [compound 11, 2,5-difluoro-N-[3-(7-pyridin-4-yl-2,3-dihydro-pyrazolo[5,1-b]thiazol-6-yl)-phenyl]-benzenesulfonamide]: the IC50 in assay [1] is 0.66 µM; in assay [2] (setting [4]) it was 0.26 µM; in assay [3], > 10 µM.

As to `O=C(Cc1ccc(C(F)(F)F)cc1)Nc1cccc(-c2nn3c(c2-c2ccncc2)SCCC3)c1` [compound 12, N-[3-(3-pyridin-4-yl-6,7-dihydro-5H-pyrazolo[5,1-b][1,3]thiazin-2-yl)-phenyl]-2-(4-trifluoromethyl-phenyl)-acetamide], the results for the IC50 in assay [1], in assay [2] (setting [4]) and in assay [3] were 3.88 µM, 6.39 µM and > 10 µM, respectively.

Take `O=S(=O)(Nc1cccc(-c2nn3c(c2-c2ccncc2)SCCC3)c1)c1ccco1` [compound 13, furan-2-sulfonic acid [3-(3-pyridin-4-yl-6,7-dihydro-5H-pyrazolo[5,1-b][1,3]thiazin-2-yl)-phenyl]-amide]: the figures for the IC50 in assay [1], in assay [2] (setting [4]) and in assay [3] were 9.28 µM, 3.03 µM and > 10 µM, respectively.

With `O=S(=O)(Nc1cccc(-c2nn3c(c2-c2ccncc2)SCCC3)c1)c1ccsc1` [compound 14, thiophene-3-sulfonic acid [3-(3-pyridin-4-yl-6,7-dihydro-5H-pyrazolo[5,1-b][1,3]-thiazin-2-yl)-phenyl]-amide], the IC50 was 7.07 µM in assay [1], 4.69 µM in assay [2] (setting [4]) and > 10 µM in assay [3].

For `CC(C)(C)c1ccc(NC(=O)c2cccc(-c3nn4c(c3-c3ccncc3)SCC4)c2)cc1` [compound 15, N-(4-tert-butyl-phenyl)-3-(7-pyridin-4-yl-2,3-dihydro-pyrazolo[5,1-b]thiazol-6-yl)-benzamide], the results for the IC50 in assay [1], in assay [2] (setting [4]) and in assay [3] were 0.68 µM, 0.48 µM and 3.09 µM, respectively.

Consider `NC(=O)c1csc2c(-c3ccncc3)c(-c3cccc(NS(=O)(=O)c4cc(F)ccc4F)c3)nn12` [compound 17, 6-[3-(2,5-difluoro-benzenesulfonylamino)-phenyl]-7-pyridin-4-yl-pyrazolo[5,1-b]thiazole-3-carboxylic acid amide], for which the half-maximal inhibitory concentration (IC50) in assay [1] is 1.34 µM; in assay [2] (setting [4]), 1.17 µM; in assay [3], > 10 µM.

Consider `CC(C)(C)c1ccc(NC(=O)Nc2cccc(-c3nn4c(c3-c3ccncc3)SCC4)c2)cc1` [compound 18, 1-(4-tert-butyl-phenyl)-3-[3-(7-pyridin-4-yl-2,3-dihydro-pyrazolo[5,1-b]thiazol-6-yl)-phenyl]-urea], for which the IC50 is 2.16 µM in assay [1], 2.29 µM in assay [2] (setting [4]) and > 10 µM in assay [3].

On to `O=C(Nc1ccc(C(F)(F)F)cc1)Nc1cccc(-c2nn3c(c2-c2ccncc2)[S+]([O-])CC3)c1` (stereo not drawn) [compound 19, 1-[3-(1-oxo-7-pyridin-4-yl-2,3-dihydro-pyrazolo[5,1-b]thiazol-6-yl)-phenyl]-3-(4-trifluoromethyl-phenyl)-urea], for which the IC50 was 7.68 µM in assay [1], 4.69 µM in assay [2] (setting [4]) and > 10 µM in assay [3].

Consider `Oc1cccc(-c2nn3ccsc3c2-c2ccncc2)c1` [compound 20, 3-(7-pyridin-4-yl-pyrazolo[5,1-b]thiazol-6-yl)-phenol], for which the IC50 was 1.17 µM in assay [1], 0.36 µM in assay [2] (setting [4]) and > 10 µM in assay [3].

In the case of `O=S(=O)(Nc1cccc(-c2nn3ccsc3c2-c2ccncc2)c1)c1cc(F)ccc1F` [compound 21, 2,5-difluoro-N-[3-(7-pyridin-4-yl-pyrazolo[5,1-b]thiazol-6-yl)-phenyl]-benzenesulfonamide], the half-maximal inhibitory concentration (IC50) in assay [1] was 3.13 µM; in assay [2] (setting [4]), 0.21 µM; in assay [3] it was > 10 µM.

On to `O=C(Nc1ccc(C(F)(F)F)cc1)Nc1cccc(-c2nn3ccsc3c2-c2ccncc2)c1` [compound 22, 1-[3-(7-pyridin-4-yl-pyrazolo[5,1-b]thiazol-6-yl)-phenyl]-3-(4-trifluoromethyl-phenyl)-urea], for which the concentration for half-maximal inhibition (IC50) in assay [1] was 1.03 µM; in assay [2] (setting [4]) it was 0.44 µM; in assay [3], 5.41 µM.

Take `O=S(=O)(Nc1ccc(F)c(-c2nn3c(c2-c2ccncc2)SCC3)c1F)c1cc(F)ccc1F` [compound 23, N-[2,4-difluoro-3-(7-pyridin-4-yl-2,3-dihydro-pyrazolo[5,1-b]thiazol-6-yl)-phenyl]-2,5-difluoro-benzenesulfonamide]: the 50% inhibitory concentration (IC50) in assay [1] is 0.29 µM; in assay [2] (setting [4]), 0.02 µM; in assay [3] it was > 10 µM.

Consider `O=C(Nc1ccc(C(F)(F)F)cc1)c1cccc(-c2nn3c(c2-c2ccncc2)SCC3)c1` [compound 24, 3-(7-pyridin-4-yl-2,3-dihydro-pyrazolo[5,1-b]thiazol-6-yl)-N-(4-trifluoromethyl-phenyl)-benzamide], for which the IC50 in assay [1] is 1.23 µM; in assay [2] (setting [4]), 1.46 µM; in assay [3] it was 5.09 µM.

In general, IC50 refers to the concentration at which inhibition is half-maximal.
